According to ChEMBL document CHEMBL4270597, “Donepezil-butylated hydroxytoluene (BHT) hybrids as Anti-Alzheimer's disease agents with cholinergic, antioxidant, and neuroprotective properties” (Eur J Med Chem, 2018):

Tests used:
[1] = test system: PC-12; assay: Neuroprotective activity against H2O2-induced apoptosis in rat PC12 cells assessed as necrotic cells at 10 uM after 24 hrs by Annexin V-FITC/propidium iodide staining-based flow cytometry (reference value: 4.9%); format: functional
[2] = target: Acetylcholinesterase (Electrophorus electricus, UniProt O42275); assay: Inhibition of electric eel AChE using acetylthiocholine chloride as substrate incubated for 5 mins followed by substrate addition measured after 180 secs by Ellman's method
[3] = target: Cholinesterase (Equus caballus) (UniProt P81908); assay: Inhibition of equine serum BuChE at 100 uM using butyrylthiocholine iodide as substrate incubated for 5 mins followed by substrate addition measured after 180 secs by Ellman's method relative to control
[4] = test system: PC-12; assay: Neuroprotective activity against H2O2-induced apoptosis in rat PC12 cells assessed as necrotic cells at 5 uM after 24 hrs by Annexin V-FITC/propidium iodide staining-based flow cytometry (reference value: 4.9%); format: functional
[5] = target: Acetylcholinesterase (Homo sapiens, UniProt P22303); assay: Inhibition of human erythrocyte AChE using acetylthiocholine chloride as substrate incubated for 5 mins followed by substrate addition measured after 180 secs by Ellman's method
[6] = test system: PC-12; assay: Neuroprotective activity against H2O2-induced apoptosis in rat PC12 cells assessed as late apoptotic cells at 5 uM after 24 hrs by Annexin V-FITC/propidium iodide staining-based flow cytometry (reference value: 25.3%); format: functional
[7] = test system: PC-12; assay: Neuroprotective activity against H2O2-induced apoptosis in rat PC12 cells assessed as early apoptotic cells at 5 uM after 24 hrs by Annexin V-FITC/propidium iodide staining-based flow cytometry (reference value: 1.4%); format: functional
[8] = target: Cholinesterase (Homo sapiens, UniProt P06276); assay: Inhibition of human serum BuChE at 100 uM using butyrylthiocholine iodide as substrate incubated for 5 mins followed by substrate addition measured after 180 secs by Ellman's method relative to control
[9] = species on record: Homo sapiens; assay: Selectivity index, ratio of IC50 for human serum BuChE to IC50 for human erythrocyte AChE
[10] = test system: PC-12; assay: Neuroprotective activity against H2O2-induced apoptosis in rat PC12 cells assessed as early apoptotic cells at 2.5 uM after 24 hrs by Annexin V-FITC/propidium iodide staining-based flow cytometry (reference value: 1.4%); format: functional
[11] = test system: PC-12; assay: Cytotoxicity against rat PC12 cells assessed as decrease in cell viability at 20 uM after 24 hrs by MTT assay; format: cell-based; conditions: pc-12, 24 h
[12] = target: T1, Amine oxidase [flavin-containing] A (Homo sapiens, UniProt P21397); assay: Inhibition of human MAO-A using p-tyramine as substrate incubated for 15 mins followed by substrate addition measured for 20 mins by fluorescence assay
T1 sequence (P21397 whole entry): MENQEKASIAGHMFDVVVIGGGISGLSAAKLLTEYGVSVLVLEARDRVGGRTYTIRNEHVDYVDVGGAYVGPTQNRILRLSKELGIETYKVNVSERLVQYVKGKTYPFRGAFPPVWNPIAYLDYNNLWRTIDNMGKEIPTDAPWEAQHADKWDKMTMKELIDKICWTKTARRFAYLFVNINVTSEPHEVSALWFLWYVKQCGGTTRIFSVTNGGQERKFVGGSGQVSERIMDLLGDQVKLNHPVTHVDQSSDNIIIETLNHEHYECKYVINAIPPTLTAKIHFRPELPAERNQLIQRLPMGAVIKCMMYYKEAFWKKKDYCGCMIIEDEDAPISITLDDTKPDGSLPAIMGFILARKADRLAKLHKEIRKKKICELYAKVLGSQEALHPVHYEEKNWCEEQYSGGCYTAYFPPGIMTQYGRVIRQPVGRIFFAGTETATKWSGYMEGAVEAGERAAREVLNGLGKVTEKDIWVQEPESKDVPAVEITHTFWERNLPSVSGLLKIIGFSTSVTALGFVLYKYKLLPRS

[13] = Antioxidant activity assessed as DPPH radical scavenging activity measured after 30 mins incubation in dark by UV-Visible spectrophotometric analysis; format: functional
[14] = test system: PC-12; assay: Cytotoxicity against rat PC12 cells assessed as decrease in cell viability at 30 uM after 24 hrs by MTT assay; format: cell-based; conditions: pc-12, 24 h
[15] = target: Amyloid-beta precursor protein (Homo sapiens) (UniProt P05067); assay: Inhibition of AChE-induced amyloid beta 40 (unknown origin) aggregation at 100 uM by thioflavin-T fluorescence assay relative to control
[16] = Antioxidant activity assessed as ABTS radical cation scavenging activity by measuring trolox equivalent antioxidant capacity measured at 6 mins; format: functional
[17] = Antioxidant activity assessed as trolox equivalent of AAPH-induced radical scavenging activity preincubated for 15 mins followed by AAPH addition measured every minute for 120 mins by ORAC-FL based fluorescein assay; format: functional
[18] = test system: PC-12; assay: Reversal of H2O2-induced calcium overload in rat PC12 cells assessed as mean fluorescence intensity at 2.5 uM after 48 hrs by Fluo-3/AM probe based flow cytometry (reference value: 454014); format: functional
[19] = test system: PC-12; assay: Reversal of H2O2-induced calcium overload in rat PC12 cells after 48 hrs by Fluo-3/AM probe based flow cytometry; format: functional, cell-based
[20] = test system: BV-2; assay: Inhibition of LPS-induced intracellular ROS production in mouse BV2 cells assessed as mean fluorescence intensity at 10 uM incubated with LPS for 18 hrs followed by compound addition measured after 36 hrs by DCFH-DA probe based flow cytometry (reference value: 493530); format: functional
[21] = test system: BV-2; assay: Inhibition of LPS-induced intracellular ROS production in mouse BV2 cells assessed as mean fluorescence intensity at 20 uM incubated with LPS for 18 hrs followed by compound addition measured after 36 hrs by DCFH-DA probe based flow cytometry (reference value: 493530); format: functional
[22] = test system: BV-2; assay: Inhibition of LPS-induced intracellular ROS production in mouse BV2 cells assessed as mean fluorescence intensity incubated with LPS for 18 hrs followed by compound addition measured after 36 hrs by DCFH-DA probe based flow cytometry; format: functional, cell-based
[23] = test system: Mus musculus; assay: Acute toxicity in mouse assessed as mortality at 677 to 2000 mg/kg, po measured continuously for first 4 hrs and intermittently for next 24 hrs and occasionally for 14 days; format: organism-based; conditions: in vivo
[24] = test system: Mus musculus; assay: Acute toxicity in mouse assessed as body weight change at 677 to 2000 mg/kg, po measured continuously for first 4 hrs and intermittently for next 24 hrs and occasionally for 14 days; format: organism-based; conditions: in vivo
[25] = test system: Mus musculus; assay: Acute toxicity in mouse assessed as abnormal changes in liver at 2000 mg/kg, po measured continuously for first 4 hrs and intermittently for next 24 hrs and occasionally for 14 days by hematoxylin and eosin staining based microscopic method; format: organism-based; conditions: in vivo
[26] = test system: Mus musculus; assay: Acute toxicity in mouse assessed as abnormal changes in kidney at 2000 mg/kg, po measured continuously for first 4 hrs and intermittently for next 24 hrs and occasionally for 14 days by hematoxylin and eosin staining based microscopic method; format: organism-based; conditions: in vivo
[27] = test system: Mus musculus; assay: Toxicity in ICR mouse assessed as change in body weight at 5 to 10 mg/kg, po administered for 10 consecutive days; format: organism-based; conditions: in vivo
[28] = test system: Mus musculus; assay: Toxicity in ICR mouse assessed as emesis at 5 to 10 mg/kg, po administered for 10 consecutive days; format: organism-based; conditions: in vivo
[29] = test system: Mus musculus; assay: Toxicity in ICR mouse assessed as mouse survival at 5 to 10 mg/kg, po administered for 10 consecutive days; format: organism-based; conditions: in vivo

Chain of Amyloid-beta precursor protein (Homo sapiens) (P05067 whole entry): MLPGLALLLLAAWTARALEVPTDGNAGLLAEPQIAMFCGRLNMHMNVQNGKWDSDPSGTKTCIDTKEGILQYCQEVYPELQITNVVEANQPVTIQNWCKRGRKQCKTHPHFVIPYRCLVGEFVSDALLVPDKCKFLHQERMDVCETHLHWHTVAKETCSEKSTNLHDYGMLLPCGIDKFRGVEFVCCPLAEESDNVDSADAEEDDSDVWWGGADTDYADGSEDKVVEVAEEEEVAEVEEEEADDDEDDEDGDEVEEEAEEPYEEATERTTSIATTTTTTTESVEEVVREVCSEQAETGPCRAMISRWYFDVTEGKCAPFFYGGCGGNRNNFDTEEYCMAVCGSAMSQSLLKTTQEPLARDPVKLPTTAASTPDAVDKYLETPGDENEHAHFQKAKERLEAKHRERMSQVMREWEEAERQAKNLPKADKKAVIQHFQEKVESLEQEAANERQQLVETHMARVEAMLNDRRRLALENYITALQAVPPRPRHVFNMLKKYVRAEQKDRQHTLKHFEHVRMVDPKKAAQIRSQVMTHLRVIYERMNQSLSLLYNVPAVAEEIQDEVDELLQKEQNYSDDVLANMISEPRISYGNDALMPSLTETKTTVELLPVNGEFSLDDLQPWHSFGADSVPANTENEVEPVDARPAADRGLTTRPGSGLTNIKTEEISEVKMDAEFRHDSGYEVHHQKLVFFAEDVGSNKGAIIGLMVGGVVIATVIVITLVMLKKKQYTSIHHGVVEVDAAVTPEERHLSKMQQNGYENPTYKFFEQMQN
Chain of Cholinesterase (P06276 whole entry): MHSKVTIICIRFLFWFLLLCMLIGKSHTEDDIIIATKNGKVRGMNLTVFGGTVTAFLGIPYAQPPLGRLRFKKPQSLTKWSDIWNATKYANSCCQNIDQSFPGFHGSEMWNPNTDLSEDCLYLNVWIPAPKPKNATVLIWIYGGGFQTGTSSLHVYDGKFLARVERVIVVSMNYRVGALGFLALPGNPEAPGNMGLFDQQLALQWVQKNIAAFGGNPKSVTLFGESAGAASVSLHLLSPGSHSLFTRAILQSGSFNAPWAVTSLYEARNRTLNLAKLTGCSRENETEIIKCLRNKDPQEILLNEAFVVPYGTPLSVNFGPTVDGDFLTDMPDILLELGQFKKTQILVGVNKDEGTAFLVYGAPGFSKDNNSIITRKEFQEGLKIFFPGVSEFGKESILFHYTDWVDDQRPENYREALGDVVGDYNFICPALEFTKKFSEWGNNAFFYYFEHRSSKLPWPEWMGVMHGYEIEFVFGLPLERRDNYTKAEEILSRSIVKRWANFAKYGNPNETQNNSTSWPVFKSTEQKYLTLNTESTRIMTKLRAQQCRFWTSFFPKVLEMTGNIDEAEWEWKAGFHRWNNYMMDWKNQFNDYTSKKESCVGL
Chain of Cholinesterase (Equus caballus) (P81908 whole entry): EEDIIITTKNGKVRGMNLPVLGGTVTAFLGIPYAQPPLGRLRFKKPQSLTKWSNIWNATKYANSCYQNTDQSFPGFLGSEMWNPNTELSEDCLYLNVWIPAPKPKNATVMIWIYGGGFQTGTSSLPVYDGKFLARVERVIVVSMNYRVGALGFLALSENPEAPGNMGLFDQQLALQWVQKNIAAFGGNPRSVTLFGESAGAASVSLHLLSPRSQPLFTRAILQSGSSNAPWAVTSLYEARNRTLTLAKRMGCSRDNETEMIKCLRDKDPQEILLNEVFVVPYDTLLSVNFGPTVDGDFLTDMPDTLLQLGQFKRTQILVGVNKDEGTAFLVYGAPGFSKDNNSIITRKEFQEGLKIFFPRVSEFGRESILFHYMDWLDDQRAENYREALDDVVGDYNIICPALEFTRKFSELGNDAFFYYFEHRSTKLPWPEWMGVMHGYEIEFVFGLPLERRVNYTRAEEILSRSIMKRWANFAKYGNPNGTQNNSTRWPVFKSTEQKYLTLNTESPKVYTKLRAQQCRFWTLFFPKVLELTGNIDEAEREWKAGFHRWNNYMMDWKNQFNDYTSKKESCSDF
Chain of Acetylcholinesterase (Electrophorus electricus, UniProt O42275) (O42275 whole entry): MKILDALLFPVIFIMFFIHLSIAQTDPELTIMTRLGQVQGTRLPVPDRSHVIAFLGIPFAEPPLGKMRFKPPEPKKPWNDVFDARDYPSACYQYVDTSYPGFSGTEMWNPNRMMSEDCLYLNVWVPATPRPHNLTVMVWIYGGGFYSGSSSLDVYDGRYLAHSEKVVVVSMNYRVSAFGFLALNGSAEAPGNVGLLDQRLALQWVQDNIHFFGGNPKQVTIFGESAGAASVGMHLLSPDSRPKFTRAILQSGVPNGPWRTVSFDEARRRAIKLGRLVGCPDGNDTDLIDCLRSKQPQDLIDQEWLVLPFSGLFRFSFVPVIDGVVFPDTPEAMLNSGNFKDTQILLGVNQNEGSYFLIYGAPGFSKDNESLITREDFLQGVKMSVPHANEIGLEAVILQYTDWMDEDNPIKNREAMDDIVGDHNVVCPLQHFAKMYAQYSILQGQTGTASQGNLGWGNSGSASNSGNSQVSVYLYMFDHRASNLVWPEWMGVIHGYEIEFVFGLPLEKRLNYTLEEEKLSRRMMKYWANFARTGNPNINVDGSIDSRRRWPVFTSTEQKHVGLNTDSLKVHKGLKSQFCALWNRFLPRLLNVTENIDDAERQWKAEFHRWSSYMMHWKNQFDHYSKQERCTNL
Chain of Acetylcholinesterase (Homo sapiens, UniProt P22303) (P22303 whole entry): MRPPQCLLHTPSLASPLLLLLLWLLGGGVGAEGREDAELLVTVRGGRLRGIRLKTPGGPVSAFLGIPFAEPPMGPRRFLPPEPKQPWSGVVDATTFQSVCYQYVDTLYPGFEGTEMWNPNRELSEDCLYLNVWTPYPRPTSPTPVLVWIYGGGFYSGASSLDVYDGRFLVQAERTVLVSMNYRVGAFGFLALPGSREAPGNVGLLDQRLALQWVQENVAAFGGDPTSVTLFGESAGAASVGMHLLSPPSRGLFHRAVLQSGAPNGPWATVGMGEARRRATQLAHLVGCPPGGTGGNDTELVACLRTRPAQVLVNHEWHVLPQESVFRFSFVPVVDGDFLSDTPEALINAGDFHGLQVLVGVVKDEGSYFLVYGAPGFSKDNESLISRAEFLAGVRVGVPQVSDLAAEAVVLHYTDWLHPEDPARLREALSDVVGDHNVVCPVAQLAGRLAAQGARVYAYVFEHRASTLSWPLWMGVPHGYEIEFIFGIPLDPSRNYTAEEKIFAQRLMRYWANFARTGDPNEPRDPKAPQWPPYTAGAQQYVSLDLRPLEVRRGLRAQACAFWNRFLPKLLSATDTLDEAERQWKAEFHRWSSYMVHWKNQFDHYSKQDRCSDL

Compound: CC(C)(C)c1cc(/C=C/C(=O)NCCC2CCN(Cc3ccccc3F)CC2)cc(C(C)(C)C)c1O
- Activity [1]: 1.6%
- IC50 [2]: 0.075 µM
- inhibition [3]: 48%
- Activity [4]: 2.5%
- IC50 [5]: 0.75 µM
- Activity [6]: 9%
- Activity [7]: 0.3%
- inhibition [8]: 38.4%
- Ratio IC50 [9]: > 133
- Activity [10]: 0.2%
- Activity [11]: Non-Toxic
- IC50 [12]: 60.2 µM
- IC50 [13]: 55.9 µM
- Activity [14]: Toxic
- inhibition [15]: 40.1%
- Activity (mmolequiv/mmol) [16]: 0.82
- Activity (mmolequiv/mmol) [17]: 1.64
- Flu intensity [18]: 347633
- Activity [19]: Dose-dependent effect
- Flu intensity [20]: 390948
- Flu intensity [21]: 310450
- inhibition [22]: Dose-dependent effect
- Activity [23]: Non-Toxic
- Activity [24]: Non-Toxic
- Activity [25]: Non-Toxic
- Activity [26]: Non-Toxic
- Activity [27]: Non-Toxic
- Activity [28]: Non-Toxic
- Activity [29]: Non-Toxic
